Active and inactive are the calls of the source.
What was measured:
[1] = target: T1, NADPH oxidase 1 (Homo sapiens, UniProt Q9Y5S8); format: functional, cell-based;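 also: Cell-based assay with luminescence read-out, IC50 derived from inhibitor dose-response curves; intracellular ROS from endogenous NOX1 in intact HT29 colon cancer cells; potency of inhibitors that lower the ROS luminescence signal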
T1 sequence (Q9Y5S8 whole entry): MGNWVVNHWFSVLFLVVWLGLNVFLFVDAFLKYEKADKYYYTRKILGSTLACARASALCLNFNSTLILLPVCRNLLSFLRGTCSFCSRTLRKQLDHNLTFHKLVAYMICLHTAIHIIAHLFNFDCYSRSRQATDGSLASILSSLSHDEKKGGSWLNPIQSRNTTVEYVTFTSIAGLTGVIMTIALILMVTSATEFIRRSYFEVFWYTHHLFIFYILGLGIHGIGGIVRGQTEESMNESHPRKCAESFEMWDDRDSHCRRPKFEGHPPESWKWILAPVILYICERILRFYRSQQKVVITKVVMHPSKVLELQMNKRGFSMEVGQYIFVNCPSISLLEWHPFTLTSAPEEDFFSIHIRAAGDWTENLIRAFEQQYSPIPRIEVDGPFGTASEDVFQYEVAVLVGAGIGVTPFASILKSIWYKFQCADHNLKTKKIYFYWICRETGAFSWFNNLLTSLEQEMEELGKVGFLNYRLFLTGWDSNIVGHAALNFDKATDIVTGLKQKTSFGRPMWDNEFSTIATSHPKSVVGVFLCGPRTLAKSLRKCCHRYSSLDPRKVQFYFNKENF

[2] = system: INS1; assay: INS-1E survival protection against cytokine death – cell-based, luminescence, retest, dose response (AID 449756); format: functional; conditions: Rattus norvegicus;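 also: cell death triggered by IL-1 beta plus TNF-alpha plus IFN-gamma mixture; protective hits raise ATP signal compared with cytokine alone wells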
[3] = target: T2, Estrogen receptor beta (Homo sapiens, UniProt Q92731); assay: blockers of SRC-3 recruitment to ERβ – biochemical, ELISA, streptavidin-HRP readout, orthogonal assay, confirmation (AID 1060)
T2 sequence (Q92731 whole entry): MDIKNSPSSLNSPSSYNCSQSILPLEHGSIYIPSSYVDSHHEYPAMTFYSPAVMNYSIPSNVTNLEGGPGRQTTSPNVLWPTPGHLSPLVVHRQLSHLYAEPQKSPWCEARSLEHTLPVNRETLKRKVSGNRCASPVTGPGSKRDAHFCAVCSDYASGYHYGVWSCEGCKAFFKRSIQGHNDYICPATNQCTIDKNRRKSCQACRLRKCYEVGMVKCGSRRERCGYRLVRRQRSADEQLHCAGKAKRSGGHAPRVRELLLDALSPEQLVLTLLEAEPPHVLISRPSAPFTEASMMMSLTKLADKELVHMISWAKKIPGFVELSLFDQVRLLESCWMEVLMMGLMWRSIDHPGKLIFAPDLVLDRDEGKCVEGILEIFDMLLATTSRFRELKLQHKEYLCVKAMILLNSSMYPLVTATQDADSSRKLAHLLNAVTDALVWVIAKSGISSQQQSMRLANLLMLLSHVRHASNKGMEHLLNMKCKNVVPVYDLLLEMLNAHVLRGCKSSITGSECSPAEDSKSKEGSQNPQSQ

[4] = Luminescence Cell-Based Dose Retest to Confirm Inhibitors of Cancer Stem Cells. [Related pubchem assays (depositor defined):AID2717, AID2721]; format: functional; conditions: Homo sapiens
[5] = target: T3, Streptokinase A (Streptococcus pyogenes serotype M1, UniProt P10520); assay: viability-normalized secreted streptokinase activity reduction – plasminogen activation absorbance, OD405, dose response (AID 1914); format: functional, Streptococcus pyogenes M1 GAS;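 also: secreted streptokinase activity via plasminogen activation per viability signal from cell pellet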
T3 sequence (P10520 whole entry): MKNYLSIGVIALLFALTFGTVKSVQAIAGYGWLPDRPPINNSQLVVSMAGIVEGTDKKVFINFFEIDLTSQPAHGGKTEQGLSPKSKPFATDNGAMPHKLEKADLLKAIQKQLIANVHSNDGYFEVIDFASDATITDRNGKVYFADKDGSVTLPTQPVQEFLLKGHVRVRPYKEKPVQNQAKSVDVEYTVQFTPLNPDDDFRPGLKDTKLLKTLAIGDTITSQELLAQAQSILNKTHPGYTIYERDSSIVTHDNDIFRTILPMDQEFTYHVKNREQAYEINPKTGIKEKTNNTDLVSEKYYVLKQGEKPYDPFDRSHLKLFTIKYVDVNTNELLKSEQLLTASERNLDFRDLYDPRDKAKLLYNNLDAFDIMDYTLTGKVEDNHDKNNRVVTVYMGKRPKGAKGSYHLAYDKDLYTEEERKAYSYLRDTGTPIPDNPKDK

[6] = target: T2, Estrogen receptor beta
[7] = system: Streptococcus sp. 'group A'; assay: Streptococcus pyogenes SK(-)GAS viability under kanamycin – luminescence, BacTiterGlo, confirmation, counter-screen for streptokinase expression inhibitor project, dose response (AID 1900); format: functional, organism-based
[8] = target: T4, Estrogen receptor (Homo sapiens, UniProt P03372);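 also: potency for inhibiting coactivator peptide recruitment to the receptor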
T4 sequence (P03372 whole entry): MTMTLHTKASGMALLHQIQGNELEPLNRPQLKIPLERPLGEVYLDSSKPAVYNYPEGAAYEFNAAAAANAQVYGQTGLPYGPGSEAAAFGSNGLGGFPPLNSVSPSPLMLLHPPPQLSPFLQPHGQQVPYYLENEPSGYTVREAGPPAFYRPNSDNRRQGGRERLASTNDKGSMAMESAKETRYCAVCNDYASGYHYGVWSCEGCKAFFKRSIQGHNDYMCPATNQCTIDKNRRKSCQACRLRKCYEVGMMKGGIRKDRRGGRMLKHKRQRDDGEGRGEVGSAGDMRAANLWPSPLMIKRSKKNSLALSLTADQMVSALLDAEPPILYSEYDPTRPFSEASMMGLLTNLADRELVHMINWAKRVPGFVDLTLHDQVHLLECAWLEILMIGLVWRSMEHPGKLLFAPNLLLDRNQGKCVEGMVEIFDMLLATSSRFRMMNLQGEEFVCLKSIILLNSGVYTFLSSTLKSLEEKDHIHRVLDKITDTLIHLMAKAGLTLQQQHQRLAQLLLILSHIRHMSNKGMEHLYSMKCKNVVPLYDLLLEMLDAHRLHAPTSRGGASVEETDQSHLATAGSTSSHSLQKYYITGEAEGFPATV

[9] = system: Streptococcus; assay: GAS UMAA2166 growth inhibition – luminescence, BacTiterGlo, counter-screen for streptokinase expression inhibitor project, dose response (AID 1915); format: functional, organism-based;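 also: potency for reduction of bacterial viability or growth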
[10] = target: Nonstructural protein 1 (Influenza A virus, UniProt Q194T2); format: functional, Influenza A virus (A/California/07/2009(H1N1))
Sequence of Nonstructural protein 1 (Q194T2 whole entry): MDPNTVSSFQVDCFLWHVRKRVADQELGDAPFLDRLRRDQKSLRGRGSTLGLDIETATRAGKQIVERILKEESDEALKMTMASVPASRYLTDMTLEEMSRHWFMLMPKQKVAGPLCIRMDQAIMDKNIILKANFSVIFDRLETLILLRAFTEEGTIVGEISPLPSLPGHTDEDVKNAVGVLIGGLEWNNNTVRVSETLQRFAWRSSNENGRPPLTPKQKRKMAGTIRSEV

[11] = target: Peroxisome proliferator-activated receptor gamma/Nuclear receptor coactivator 3 (Homo sapiens, UniProt P37231); format: functional;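 also: agonist potency for raising coactivator recruitment to the receptor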
Sequence of Peroxisome proliferator-activated receptor gamma/Nuclear receptor coactivator 3 (P37231 whole entry): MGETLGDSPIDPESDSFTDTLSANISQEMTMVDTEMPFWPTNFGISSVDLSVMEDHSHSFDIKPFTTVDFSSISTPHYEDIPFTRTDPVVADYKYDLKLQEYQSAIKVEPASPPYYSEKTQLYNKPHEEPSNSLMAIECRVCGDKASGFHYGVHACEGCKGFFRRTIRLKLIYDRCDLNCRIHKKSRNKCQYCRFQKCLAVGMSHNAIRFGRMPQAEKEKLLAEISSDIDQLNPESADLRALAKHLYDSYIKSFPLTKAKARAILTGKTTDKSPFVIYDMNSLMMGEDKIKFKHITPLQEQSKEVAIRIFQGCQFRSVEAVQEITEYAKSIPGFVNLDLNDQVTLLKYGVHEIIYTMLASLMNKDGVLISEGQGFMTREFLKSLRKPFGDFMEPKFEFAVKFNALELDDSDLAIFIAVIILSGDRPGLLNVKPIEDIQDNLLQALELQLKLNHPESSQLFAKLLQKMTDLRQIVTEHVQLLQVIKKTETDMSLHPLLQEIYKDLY
Sequence of Peroxisome proliferator-activated receptor gamma/Nuclear receptor coactivator 3 (Q9Y6Q9 whole entry, further chain): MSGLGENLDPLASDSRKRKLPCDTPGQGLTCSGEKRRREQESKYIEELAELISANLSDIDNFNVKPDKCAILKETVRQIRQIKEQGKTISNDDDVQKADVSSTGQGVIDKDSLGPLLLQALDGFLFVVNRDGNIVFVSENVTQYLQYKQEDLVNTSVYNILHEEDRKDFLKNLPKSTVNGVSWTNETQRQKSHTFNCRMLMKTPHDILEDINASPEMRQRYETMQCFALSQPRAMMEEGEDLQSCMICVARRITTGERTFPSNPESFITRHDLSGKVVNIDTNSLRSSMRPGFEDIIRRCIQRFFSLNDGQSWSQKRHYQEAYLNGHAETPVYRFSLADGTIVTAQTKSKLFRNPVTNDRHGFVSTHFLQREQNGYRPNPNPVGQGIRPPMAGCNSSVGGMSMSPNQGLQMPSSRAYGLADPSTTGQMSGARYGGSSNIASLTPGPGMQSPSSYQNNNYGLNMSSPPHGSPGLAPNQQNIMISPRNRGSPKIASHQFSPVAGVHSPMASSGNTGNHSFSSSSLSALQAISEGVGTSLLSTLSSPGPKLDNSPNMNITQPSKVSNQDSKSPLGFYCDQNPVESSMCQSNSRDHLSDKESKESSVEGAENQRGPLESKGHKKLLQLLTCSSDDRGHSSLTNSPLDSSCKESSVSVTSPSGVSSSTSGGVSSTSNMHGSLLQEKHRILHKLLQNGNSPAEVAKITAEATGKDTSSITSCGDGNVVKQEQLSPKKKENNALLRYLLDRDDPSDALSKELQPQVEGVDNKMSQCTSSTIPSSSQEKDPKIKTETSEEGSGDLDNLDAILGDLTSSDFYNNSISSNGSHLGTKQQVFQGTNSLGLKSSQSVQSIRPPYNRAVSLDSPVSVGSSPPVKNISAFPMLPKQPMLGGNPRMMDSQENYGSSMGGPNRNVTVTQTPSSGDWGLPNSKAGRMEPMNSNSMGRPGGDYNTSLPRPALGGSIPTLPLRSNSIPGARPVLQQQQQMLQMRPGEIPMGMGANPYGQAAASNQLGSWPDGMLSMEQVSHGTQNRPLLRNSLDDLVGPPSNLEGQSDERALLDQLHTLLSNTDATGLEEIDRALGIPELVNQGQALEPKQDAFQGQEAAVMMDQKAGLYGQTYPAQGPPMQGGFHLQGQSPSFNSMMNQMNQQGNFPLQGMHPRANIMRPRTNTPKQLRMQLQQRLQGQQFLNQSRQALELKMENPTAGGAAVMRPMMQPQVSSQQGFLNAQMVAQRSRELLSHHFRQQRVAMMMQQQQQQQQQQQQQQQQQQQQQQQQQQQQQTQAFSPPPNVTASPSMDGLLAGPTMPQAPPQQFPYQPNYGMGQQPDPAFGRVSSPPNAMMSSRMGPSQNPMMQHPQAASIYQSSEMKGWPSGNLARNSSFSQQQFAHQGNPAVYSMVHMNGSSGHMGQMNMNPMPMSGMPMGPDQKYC

[12] = target: Peroxisome proliferator-activated receptor gamma/Nuclear receptor coactivator 2 (Homo sapiens, UniProt P37231); format: functional;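 also: agonist potency for raising coactivator recruitment to the receptor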
[13] = target: Peroxisome proliferator-activated receptor gamma/Nuclear receptor coactivator 1 (Homo sapiens, UniProt P37231); format: functional;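 also: agonist potency as compounds enhance coactivator SRC-1 recruitment to PPARgamma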
Sequence of Peroxisome proliferator-activated receptor gamma/Nuclear receptor coactivator 1 (P37231 whole entry): as the sequence (P37231 whole entry) above
Sequence of Peroxisome proliferator-activated receptor gamma/Nuclear receptor coactivator 1 (Q15788 whole entry, further chain): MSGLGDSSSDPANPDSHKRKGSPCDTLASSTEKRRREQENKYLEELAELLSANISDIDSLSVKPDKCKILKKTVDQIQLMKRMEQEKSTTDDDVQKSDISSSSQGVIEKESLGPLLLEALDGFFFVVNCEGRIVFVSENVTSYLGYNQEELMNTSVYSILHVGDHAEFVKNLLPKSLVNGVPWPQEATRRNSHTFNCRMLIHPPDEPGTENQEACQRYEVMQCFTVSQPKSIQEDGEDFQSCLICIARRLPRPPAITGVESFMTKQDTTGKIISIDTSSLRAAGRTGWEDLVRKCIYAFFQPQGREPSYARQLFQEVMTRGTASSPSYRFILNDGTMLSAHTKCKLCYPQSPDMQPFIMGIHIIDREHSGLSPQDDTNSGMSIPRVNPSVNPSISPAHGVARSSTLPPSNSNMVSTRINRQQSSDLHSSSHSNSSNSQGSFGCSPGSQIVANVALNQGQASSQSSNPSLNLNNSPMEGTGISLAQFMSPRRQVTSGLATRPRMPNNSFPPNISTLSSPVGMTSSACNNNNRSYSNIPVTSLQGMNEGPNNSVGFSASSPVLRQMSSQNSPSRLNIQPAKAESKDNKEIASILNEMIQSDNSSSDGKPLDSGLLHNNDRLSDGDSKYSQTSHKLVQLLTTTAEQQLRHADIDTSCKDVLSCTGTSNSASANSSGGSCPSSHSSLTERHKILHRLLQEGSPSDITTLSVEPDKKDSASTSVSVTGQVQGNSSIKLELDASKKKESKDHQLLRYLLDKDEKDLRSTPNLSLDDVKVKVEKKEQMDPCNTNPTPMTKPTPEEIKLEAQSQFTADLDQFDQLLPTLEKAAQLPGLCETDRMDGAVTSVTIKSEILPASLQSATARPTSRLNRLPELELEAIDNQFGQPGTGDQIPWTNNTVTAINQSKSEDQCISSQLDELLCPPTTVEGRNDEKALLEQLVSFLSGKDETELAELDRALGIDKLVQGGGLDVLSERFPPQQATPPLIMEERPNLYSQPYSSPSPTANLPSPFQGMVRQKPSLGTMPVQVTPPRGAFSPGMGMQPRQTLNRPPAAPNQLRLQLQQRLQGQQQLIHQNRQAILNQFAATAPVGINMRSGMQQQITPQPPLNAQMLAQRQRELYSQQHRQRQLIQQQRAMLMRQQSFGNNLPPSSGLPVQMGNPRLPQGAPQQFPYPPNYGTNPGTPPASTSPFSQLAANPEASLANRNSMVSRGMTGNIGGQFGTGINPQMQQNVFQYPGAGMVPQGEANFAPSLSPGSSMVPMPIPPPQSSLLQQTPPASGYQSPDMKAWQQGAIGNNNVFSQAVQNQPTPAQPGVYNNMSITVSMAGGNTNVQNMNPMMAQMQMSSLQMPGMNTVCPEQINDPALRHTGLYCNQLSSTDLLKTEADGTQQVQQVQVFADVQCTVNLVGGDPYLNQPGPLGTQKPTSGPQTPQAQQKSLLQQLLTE

[14] = HPDE-C7 pancreatic duct cell viability loss – fluorescence, HTS (AID 430); format: functional, cell-based; conditions: Homo sapiens
[15] = target: T5, Rac GTPase-activating protein 1 (Homo sapiens, UniProt Q9H0H5); assay: blockers of MgcRacGAP-driven Rac1 GTP hydrolysis – biochemical, ADP Hunter fluorescence, primary and confirmatory, confirmation (AID 624330); format: functional
T5 sequence (Q9H0H5 whole entry): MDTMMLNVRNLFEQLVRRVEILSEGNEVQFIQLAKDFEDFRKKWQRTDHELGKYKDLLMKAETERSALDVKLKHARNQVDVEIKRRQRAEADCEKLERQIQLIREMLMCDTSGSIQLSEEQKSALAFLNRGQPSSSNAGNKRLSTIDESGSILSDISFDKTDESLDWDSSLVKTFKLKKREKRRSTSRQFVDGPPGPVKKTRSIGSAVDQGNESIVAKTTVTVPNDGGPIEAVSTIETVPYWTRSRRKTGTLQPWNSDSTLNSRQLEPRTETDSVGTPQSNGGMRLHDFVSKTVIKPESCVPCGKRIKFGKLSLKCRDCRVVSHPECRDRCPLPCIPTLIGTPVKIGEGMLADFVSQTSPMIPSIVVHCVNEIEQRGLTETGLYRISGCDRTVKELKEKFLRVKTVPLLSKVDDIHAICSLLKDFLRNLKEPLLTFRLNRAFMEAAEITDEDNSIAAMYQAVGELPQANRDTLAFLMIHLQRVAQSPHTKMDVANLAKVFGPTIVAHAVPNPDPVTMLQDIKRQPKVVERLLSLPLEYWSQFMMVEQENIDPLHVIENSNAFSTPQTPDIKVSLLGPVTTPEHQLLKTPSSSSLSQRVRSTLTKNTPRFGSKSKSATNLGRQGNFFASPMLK

[16] = viability loss of HPDE-C7K cells – cell-based, fluorescence, HTS, primary screen (AID 431); format: functional; conditions: Homo sapiens
[17] = target: T6, Heat shock factor protein 1 (Mus musculus, UniProt P38532); assay: decrease of HSF1-responsive luciferase luminescence – cell-based, NIH3T3, dose retest, confirmation (AID 2382); format: functional;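 also: NIH3T3 fibroblasts with HSF1-driven luciferase reporter stressed by proteasome inhibitor MG132; luminescence from HSF1-driven luciferase expression after 8 hours of MG132 stress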
T6 sequence (P38532 whole entry): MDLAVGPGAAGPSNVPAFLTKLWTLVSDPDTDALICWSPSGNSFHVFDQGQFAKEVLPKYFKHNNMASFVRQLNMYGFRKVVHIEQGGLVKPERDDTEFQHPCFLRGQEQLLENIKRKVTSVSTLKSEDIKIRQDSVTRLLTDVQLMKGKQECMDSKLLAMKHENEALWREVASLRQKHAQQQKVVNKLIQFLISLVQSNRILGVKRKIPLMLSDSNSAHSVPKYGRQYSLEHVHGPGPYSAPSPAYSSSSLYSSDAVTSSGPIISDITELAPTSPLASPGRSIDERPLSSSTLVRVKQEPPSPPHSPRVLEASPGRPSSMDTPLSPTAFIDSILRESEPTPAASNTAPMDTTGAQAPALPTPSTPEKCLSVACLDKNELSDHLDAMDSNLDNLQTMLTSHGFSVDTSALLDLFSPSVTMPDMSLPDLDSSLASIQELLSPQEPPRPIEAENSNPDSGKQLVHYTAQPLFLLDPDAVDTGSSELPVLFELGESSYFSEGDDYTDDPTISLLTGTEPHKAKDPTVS

[18] = system: HEK293; assay: EBV LMP1 TES2 canonical NF-kB signalling blockers – cell-based, HEK293, luciferase, cherry-pick, dose response (AID 588343); format: functional; conditions: Homo sapiens
[19] = target: T7, Corticotropin-releasing factor receptor 2/Corticotropin-releasing factor-binding protein (Homo sapiens, UniProt P24387+Q13324); assay: Dose Response confirmation of uHTS hits for small molecule antagonists of the CRF-binding protein and CRF-R2 receptor complex.; format: functional; conditions: read-out: IC50_Mean
T7 sequence (Q13324 whole entry): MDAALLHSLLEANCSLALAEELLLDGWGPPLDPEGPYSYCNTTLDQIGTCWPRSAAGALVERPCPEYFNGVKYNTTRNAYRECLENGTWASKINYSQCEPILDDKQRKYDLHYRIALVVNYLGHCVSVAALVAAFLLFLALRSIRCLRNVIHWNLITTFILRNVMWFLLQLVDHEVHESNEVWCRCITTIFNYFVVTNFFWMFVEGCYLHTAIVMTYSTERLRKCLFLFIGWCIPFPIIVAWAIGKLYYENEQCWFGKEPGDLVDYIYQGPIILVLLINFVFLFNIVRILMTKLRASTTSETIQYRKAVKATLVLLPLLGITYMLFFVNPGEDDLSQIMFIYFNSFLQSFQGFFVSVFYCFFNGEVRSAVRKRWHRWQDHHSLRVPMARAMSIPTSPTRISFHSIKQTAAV
T7 sequence (P24387 whole entry): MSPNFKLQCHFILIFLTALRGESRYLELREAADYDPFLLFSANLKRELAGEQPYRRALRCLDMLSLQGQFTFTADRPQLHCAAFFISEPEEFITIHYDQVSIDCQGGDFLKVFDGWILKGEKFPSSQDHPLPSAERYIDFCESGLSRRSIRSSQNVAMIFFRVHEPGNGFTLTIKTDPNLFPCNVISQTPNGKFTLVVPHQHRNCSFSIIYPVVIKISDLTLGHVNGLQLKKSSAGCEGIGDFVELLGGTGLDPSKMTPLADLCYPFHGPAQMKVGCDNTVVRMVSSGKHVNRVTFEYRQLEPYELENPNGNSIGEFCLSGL

[20] = target: T7, Corticotropin-releasing factor receptor 2/Corticotropin-releasing factor-binding protein; assay: activators of CRF receptor 2 with binding protein – uHTS hits, confirmation (AID 602473); format: functional; conditions: read-out: EC50_Mean
[21] = cells
[22] = blockers of CRF-binding protein–CRF-R2 complex – cell-based, uHTS hits, 384-well, dose response (AID 651639); format: functional, Homo sapiens; conditions: read-out: IC50_Mean
[23] = viability of uninfected HEp-2 cells – cell-based, HTS, cytotoxicity control for RSV inhibitor project, dose response (AID 2410); format: functional; conditions: human respiratory syncytial virus

For `COc1cccc(-c2nc(-c3ccccc3)c(-c3ccccc3)[nH]2)c1`, which IC50 [1] is on record?
The IC50 was > 17 µM (not active).

What does the source list for `CCc1ccc2nc(O)c(C3C(C#N)=C(N)Oc4c3ccc3cccnc43)cc2c1` (stereo not drawn)?
AC50 [2]: 1.46 µM (active); IC50 [3]: 2.79 µM (not active); AC50 [4]: 6.07 µM (active); EC50 [5]: > 150 µM (not active); IC50 [6]: 12 µM (active); EC50 [7]: 16.1 µM (active); IC50 [8]: 11.3 µM (active); EC50 [9]: > 150 µM (not active); IC50 [10]: 32.6 µM (active)

Which results are given for `COc1ccc(C(=O)NCC(=O)N=Nc2c(O)n(Cc3ccccc3)c3ccccc23)cc1OC`?
EC50 [11]: > 79.4 µM (not active); EC50 [12]: > 79.4 µM (not active); EC50 [13]: > 79.4 µM (not active)

For `CCn1c(SCC(=O)Nc2ccc(N(C)C)cc2)nnc1-c1cccc(C)c1`, which EC50 [14] is on record?
Its EC50 is > 20 µM (not active).

What about the IC50 [15] of the same molecule?
Its IC50 is 65.2 µM (active).

What about the EC50 [16] of the same molecule?
Its EC50 is 15.8 µM (active).

And the EC50 [17]?
The EC50 was > 195 µM (not active).

Which IC50 [1] does the source give for `CC(=O)Nc1ccccc1OC(=O)c1sc2cc(Cl)ccc2c1Cl` here?
The IC50 was > 17 µM (not active).

Which EC50 [14] does the source give for `Cc1nn(-c2ccccc2)c(Cl)c1C(=O)N1CCN(c2ncnc3c2cnn3-c2ccccc2)CC1` here?
Its EC50 is 8.56 µM (active).

And the EC50 [16]?
Its EC50 is 9.4 µM (active).

What about the AC50 [18] of the same molecule?
The AC50 was 5.24 µM (active).

And the EC50 [17]?
The EC50 was 5.06 µM (active).

For `CCOCCCNCc1ccc(OC)c(OC)c1`, which EC50 [11] is on record?
The EC50 was > 79.4 µM (not active).

What about the EC50 [12] of the same molecule?
Its EC50 is > 79.4 µM (not active).

And the EC50 [13]?
Its EC50 is > 79.4 µM (not active).

For `Cc1ccccc1-c1nnc(S)n1/N=C/c1c(C)nn(-c2ccccc2)c1C`, which IC50 [19] is on record?
Its IC50 is 8.4 µM (active).

What about the EC50 [20] of the same molecule?
The EC50 was > 53 µM (inactive).

And the IC50 [21]?
The IC50 was 11.3 µM (active).

What about the IC50 [22] of the same molecule?
Its IC50 is 12.3 µM (active).

What about the CC50 [23] of the same molecule?
The CC50 was 29.1 µM (active).

Which results are given for `COc1ccc2c(c1)c(=O)oc1cc3oc(C)c(C)c3cc12`?
IC50 [3]: 0.205 µM (not active); IC50 [6]: 12.6 µM (active); IC50 [8]: 6.9 µM (active)

From ChEMBL document CHEMBL1201862, “PubChem BioAssay data set” (2004)
